# According to ChEMBL document CHEMBL4020846 (J Med Chem, 2018):
# Calls of active or inactive are those of the source. No cut-off for these calls is given here.
# How the values were obtained:
# [1] = target: T1, Nucleotide-binding oligomerization domain-containing protein 2 (Homo sapiens, UniProt Q9HC29); test: Agonist activity at human NOD2 expressed in HEK-Blue cells assessed as induction of NF-kB transcriptional activity after 18 hrs by SEAP reporter gene assay; type: cell-based
# [2] = target: T1, Nucleotide-binding oligomerization domain-containing protein 2; test: Agonist activity at human NOD2 expressed in HEK-Blue cells assessed as induction of NF-kB transcriptional activity at 20 uM after 18 hrs by SEAP reporter gene assay; type: cell-based
# [3] = Cytotoxicity against HEK-Blue cells over-expressing NOD2 assessed as residual metabolic activity at 20 uM after 18 hrs by CellTiter 96 aqueous one solution cell proliferation assay relative to control; type: ADME, cell-based; settings: human, read-out: Activity
# [4] = target: T1, Nucleotide-binding oligomerization domain-containing protein 2; test: Agonist activity at human NOD2 expressed in HEK-Blue cells assessed as induction of NF-kB transcriptional activity at 2 uM after 18 hrs by SEAP reporter gene assay relative to control; type: cell-based
# [5] = target: T2, Nucleotide-binding oligomerization domain-containing protein 1 (Homo sapiens) (UniProt Q9Y239); test: Agonist activity at human NOD1 expressed in HEK-Blue cells assessed as induction of NF-kB transcriptional activity at 20 uM after 18 hrs by SEAP reporter gene assay; type: cell-based
# T2 sequence (whole entry): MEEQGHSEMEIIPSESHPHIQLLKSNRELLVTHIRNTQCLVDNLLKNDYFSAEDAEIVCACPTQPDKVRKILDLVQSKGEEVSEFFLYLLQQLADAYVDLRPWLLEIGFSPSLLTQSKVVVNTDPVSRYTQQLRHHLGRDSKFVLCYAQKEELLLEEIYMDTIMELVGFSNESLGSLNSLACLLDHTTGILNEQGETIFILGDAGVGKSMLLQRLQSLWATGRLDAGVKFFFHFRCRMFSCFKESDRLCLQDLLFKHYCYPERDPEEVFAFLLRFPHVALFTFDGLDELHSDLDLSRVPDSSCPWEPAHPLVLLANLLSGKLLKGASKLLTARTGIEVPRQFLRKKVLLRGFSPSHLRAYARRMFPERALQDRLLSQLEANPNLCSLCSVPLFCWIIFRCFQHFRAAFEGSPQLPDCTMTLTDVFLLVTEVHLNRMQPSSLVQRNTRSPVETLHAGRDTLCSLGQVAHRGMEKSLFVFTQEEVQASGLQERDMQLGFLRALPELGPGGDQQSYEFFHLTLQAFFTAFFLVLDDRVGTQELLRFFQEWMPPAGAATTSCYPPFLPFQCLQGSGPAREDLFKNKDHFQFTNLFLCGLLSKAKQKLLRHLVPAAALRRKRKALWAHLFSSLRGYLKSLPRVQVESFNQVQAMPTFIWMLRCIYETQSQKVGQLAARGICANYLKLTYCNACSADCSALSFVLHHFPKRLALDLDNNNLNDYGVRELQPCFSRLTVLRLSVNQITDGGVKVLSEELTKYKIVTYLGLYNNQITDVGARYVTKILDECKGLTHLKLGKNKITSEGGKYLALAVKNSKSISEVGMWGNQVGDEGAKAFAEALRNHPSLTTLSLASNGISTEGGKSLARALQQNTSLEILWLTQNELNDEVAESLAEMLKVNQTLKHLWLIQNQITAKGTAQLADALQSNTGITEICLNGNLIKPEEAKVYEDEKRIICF
# [6] = target: T1, Nucleotide-binding oligomerization domain-containing protein 2; test: Agonist activity at human NOD2 expressed in HEK-Blue cells assessed as induction of NF-kB transcriptional activity at 2 uM after 18 hrs in presence of NOD2 antagonist GSK-669 by SEAP reporter gene assay; type: cell-based
# PBMC [7] = test: Immunostimulatory activity in human PBMC assessed as increase in TNF-alpha release at 2 uM after 18 hrs by flow cytometry; type: functional, cell-based
# PBMC [8] = test: Immunostimulatory activity in human PBMC assessed as increase in IL-6 release at 2 uM after 18 hrs by flow cytometry; type: functional, cell-based
# PBMC [9] = test: Immunostimulatory activity in human PBMC assessed as increase in IL-10 release at 2 uM after 18 hrs by flow cytometry; type: functional, cell-based
# PBMC [10] = test: Immunostimulatory activity in human PBMC assessed as increase in IL-10 release at 2 uM after 18 hrs in presence of LPS by flow cytometry relative to control; type: functional
# PBMC [11] = test: Immunostimulatory activity in human PBMC assessed as increase in TNF-alpha release at 2 uM after 18 hrs in presence of LPS by flow cytometry relative to control; type: functional
# PBMC [12] = test: Immunostimulatory activity in human PBMC assessed as increase in IL-6 release at 2 uM after 18 hrs in presence of LPS by flow cytometry relative to control; type: functional
# PBMC [13] = test: Immunostimulatory activity in human PBMC assessed as increase in IL-2 release at 2 uM after 18 hrs in presence of LPS by flow cytometry; type: functional, cell-based
# PBMC [14] = test: Immunostimulatory activity in human PBMC assessed as increase in IL-4 release at 2 uM after 18 hrs in presence of LPS by flow cytometry; type: functional, cell-based
# PBMC [15] = test: Immunostimulatory activity in human PBMC assessed as increase in IL-17A release at 2 uM after 18 hrs in presence of LPS by flow cytometry; type: functional, cell-based
# PBMC [16] = test: Immunostimulatory activity in human PBMC assessed as increase in IFNgamma release at 2 uM after 18 hrs in presence of LPS by flow cytometry; type: functional, cell-based
# Mus musculus [17] = test: Immunoadjuvant activity in ovalbumin-induced NIH/OlaHsd mouse model of adjuvancy assessed as induction of ovalbumin-specific humoral immune response by measuring increase in anti-OVA IgG level in serum at 200 ug, sc using liposome encapsulated compound measured on day 7 post second booster by ELISA; type: functional, organism-based
# Mus musculus [18] = test: Immunoadjuvant activity in ovalbumin-induced NIH/OlaHsd mouse model of adjuvancy assessed as modulation of Th1/Th2-bias of induced immune response by measuring ratio of anti-OVA IgG1 to anti-OVA IgG2a level in serum at 200 ug, sc using liposome encapsulated compound measured on day 7 post second booster by ELISA (reference value: 1.69 +/- 0.28); type: functional
# T1 sequence (Q9HC29 whole entry, the tested form may be a part): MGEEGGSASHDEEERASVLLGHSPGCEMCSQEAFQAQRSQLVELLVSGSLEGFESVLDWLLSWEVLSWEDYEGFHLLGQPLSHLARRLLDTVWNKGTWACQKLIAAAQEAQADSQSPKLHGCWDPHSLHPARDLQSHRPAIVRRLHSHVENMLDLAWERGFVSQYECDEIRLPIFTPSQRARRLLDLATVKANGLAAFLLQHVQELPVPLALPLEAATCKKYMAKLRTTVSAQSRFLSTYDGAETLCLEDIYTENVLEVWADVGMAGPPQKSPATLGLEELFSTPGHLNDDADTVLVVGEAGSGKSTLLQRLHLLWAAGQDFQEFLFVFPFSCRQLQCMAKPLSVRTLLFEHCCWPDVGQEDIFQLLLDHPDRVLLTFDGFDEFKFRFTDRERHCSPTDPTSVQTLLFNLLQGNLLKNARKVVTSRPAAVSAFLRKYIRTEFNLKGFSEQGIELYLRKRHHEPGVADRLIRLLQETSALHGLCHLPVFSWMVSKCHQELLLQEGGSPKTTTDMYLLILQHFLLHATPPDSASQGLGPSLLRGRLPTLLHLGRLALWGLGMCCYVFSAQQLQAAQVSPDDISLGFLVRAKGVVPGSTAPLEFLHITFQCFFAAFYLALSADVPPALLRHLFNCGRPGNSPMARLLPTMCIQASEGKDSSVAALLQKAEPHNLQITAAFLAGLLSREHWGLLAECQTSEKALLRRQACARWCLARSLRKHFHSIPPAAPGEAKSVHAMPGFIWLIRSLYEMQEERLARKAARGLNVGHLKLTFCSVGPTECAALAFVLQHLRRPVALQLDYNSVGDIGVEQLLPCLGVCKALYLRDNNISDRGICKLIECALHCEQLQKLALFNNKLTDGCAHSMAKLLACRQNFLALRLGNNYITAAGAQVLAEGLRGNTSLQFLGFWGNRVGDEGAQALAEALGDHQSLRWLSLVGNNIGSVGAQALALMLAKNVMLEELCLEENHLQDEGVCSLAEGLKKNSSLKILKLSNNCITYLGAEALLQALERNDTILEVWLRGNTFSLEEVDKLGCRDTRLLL
SMILES,Activity [1],EC50 [1],Activity [2],"viability at 18 h, 20 µM [3]",fold change (FC) [4],Activity [5],Activity [6],other results
CCOC(=O)CC[C@@H](NC(=O)[C@H](Cc1ccccc1)NC(=O)CNC(=O)/C=C/c1ccc(F)c(F)c1)C(=O)OCC,Dose-dependent effect,172 nM,Active,> 80%,5.4,inactive,inactive,–
CCOC(=O)C1CCN(C(=O)[C@@H](NC(=O)CNC(=O)/C=C/c2ccc(O)c(OC)c2)C(C)C)CC1,–,–,Active,> 80%,–,inactive,–,–
CCOC(=O)CC[C@@H](NC(=O)[C@@H](NC(=O)CNC(=O)/C=C/c1ccccc1)C(C)C)C(=O)OCC,Dose-dependent effect,223 nM,Active,> 80%,5.7,inactive,inactive,–
CC(=O)N[C@H]1C(O)O[C@H](CO)[C@@H](O)[C@@H]1O[C@H](C)C(=O)N[C@@H](C)C(=O)N[C@H](CCC(=O)O)C(N)=O (stereo not given in full) [MURAMYL DIPEPTIDE],Dose-dependent effect,92 nM,–,> 80%,5.6,inactive,inactive,Activity (PBMC [7]): Active; Activity (PBMC [8]): Active; Activity (PBMC [9]): Active; fold change (FC) (PBMC [10]): 5; fold change (FC) (PBMC [11]): 3.6; fold change (FC) (PBMC [12]): 4; Activity (PBMC [13]): Active; Activity (PBMC [14]): Active; Activity (PBMC [15]): Active; Activity (PBMC [16]): Active; Activity (Mus musculus [17]): Active; Ratio (Mus musculus [18]): 133; log(ratio) (Mus musculus [18]): 2.37
CCOC(=O)[C@H]1CCCC[C@@H]1NC(=O)[C@@H](NC(=O)CNC(=O)/C=C/c1ccc(O)c(OC)c1)C(C)C,–,–,Active,> 80%,–,inactive,–,–
CCOC(=O)[C@@H]1CCCC[C@@H]1NC(=O)[C@@H](NC(=O)CNC(=O)/C=C/c1ccc(O)c(OC)c1)C(C)C,–,–,Active,> 80%,–,inactive,–,–
CCOC(=O)CC[C@@H](NC(=O)[C@@H](NC(=O)CNC(=O)/C=C/c1ccc(F)c(F)c1)C(C)C)C(=O)OCC,–,172 nM,Active,> 80%,5.6,inactive,inactive,–
CCOC(=O)c1cc(O)ccc1NC(=O)[C@@H](NC(=O)CNC(=O)/C=C/c1ccc(O)c(OC)c1)C(C)C,–,–,Active,> 80%,–,inactive,–,–
CCOC(=O)CC[C@@H](NC(=O)[C@H](Cc1ccccc1)NC(=O)CNC(=O)C1CC1c1ccc(F)c(F)c1)C(=O)OCC (stereo not given in full),Dose-dependent effect,276 nM,Active,> 80%,5.2,inactive,inactive,–
CCOC(=O)CC[C@@H](NC(=O)[C@H](Cc1ccccc1)NC(=O)CNC(=O)/C=C/c1ccccc1)C(=O)OCC,Dose-dependent effect,388 nM,Active,> 80%,5.3,inactive,inactive,–
